Like-named read-outs stand apart in the source and are kept apart here. Bounds are passed on as bounds.

This is an account of results in patent publication US20240408216A1, “PROTEIN INHIBITOR OR DEGRADING AGENT, PHARMACEUTICAL COMPOSITION CONTAINING SAME AND PHARMACEUTICAL USE” (JING MEDICINE TECHNOLOGY (SHANGHAI) LTD., priority 2021, published 2024).

For experiment [1], the system named is BaF3 (EGFR WT). The experiment can be described thus: Cell proliferation IC50 assay (Cell Titer GLO), BaF3 WT cells. The format is cell-based. The note with it: Mus musculus, Ba/F3 EGFR, 72 h. In short, it runs like this: (§1)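 Each cell line, plated at 2000-4000 cells/well, received serially diluted compound for 72 h (37° C, 5% CO2) before luminescent ATP-based viability detection. IC50 values were derived from growth inhibition relative to DMSO-treated and cell-free blank wells.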

The test system of experiment [2] is BaF3 (EGFR L858R/T790M/C797S). Kind of experiment: Cell proliferation IC50 assay (Cell Titer GLO), BaF3 LTC cells. The format is cell-based. The following applies: Mus musculus, Ba/F3 EGFR. In short, it runs like this: as §1
The target of experiment [3] is T1, BaF3 (EGFR Del19/C797S) (Homo sapiens, UniProt P00533, C797S, cells depend on it, form not given).
T1 construct: BaF3 (EGFR Del19/C797S)|DC|RPMI1640 + 10% FBS
T1 sequence (P00533 with tags, fused parts or gaps DEL746-750/C797S, form open): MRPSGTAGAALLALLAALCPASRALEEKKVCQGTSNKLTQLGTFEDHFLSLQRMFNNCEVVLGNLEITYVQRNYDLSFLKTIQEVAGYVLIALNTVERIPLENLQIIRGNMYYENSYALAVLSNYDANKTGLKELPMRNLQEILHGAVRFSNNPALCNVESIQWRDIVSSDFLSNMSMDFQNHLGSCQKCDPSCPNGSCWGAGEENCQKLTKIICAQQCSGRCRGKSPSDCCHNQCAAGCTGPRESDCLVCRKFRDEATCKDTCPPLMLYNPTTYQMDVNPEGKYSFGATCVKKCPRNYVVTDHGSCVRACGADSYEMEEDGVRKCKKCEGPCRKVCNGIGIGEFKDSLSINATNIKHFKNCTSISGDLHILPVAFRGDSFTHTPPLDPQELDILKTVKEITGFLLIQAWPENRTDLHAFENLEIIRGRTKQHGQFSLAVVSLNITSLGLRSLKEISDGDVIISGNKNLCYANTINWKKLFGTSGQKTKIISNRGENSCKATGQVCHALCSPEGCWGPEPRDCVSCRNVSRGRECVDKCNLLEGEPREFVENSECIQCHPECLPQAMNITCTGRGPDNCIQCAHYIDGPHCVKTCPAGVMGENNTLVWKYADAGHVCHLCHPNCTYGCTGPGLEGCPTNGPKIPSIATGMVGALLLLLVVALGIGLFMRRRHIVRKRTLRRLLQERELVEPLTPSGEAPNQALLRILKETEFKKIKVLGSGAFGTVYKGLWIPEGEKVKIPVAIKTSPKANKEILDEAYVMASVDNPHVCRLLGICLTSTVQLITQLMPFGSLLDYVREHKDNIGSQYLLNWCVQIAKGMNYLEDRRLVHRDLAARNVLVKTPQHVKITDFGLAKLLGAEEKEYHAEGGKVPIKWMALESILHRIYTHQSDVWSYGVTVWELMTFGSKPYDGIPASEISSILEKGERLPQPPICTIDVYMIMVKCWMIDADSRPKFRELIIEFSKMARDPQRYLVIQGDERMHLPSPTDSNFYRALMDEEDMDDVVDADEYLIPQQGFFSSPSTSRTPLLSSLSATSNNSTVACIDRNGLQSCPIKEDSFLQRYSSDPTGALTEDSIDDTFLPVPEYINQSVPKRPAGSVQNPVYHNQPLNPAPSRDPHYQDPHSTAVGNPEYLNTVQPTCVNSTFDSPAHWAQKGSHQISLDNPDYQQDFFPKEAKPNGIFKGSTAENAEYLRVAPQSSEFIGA
Kind of experiment: Cell proliferation IC50 assay (Cell Titer GLO), BaF3 DC cells. The format is cell-based, mouse. The note with it: Table 6, 72 h. In short, it runs like this: as §1

Experiment [4] relates to BaF3 patent. The experiment can be described thus: Cell proliferation IC50 assay (Cell Titer GLO), BaF3 parental cells. The format is cell-based. The following applies: Mus musculus. The procedure:
(§2) IC50 of compounds in the present invention was determined by Cell Titer GLO reagent from Promega. The procedures are as follows:
(§3) Tumor cells were cultured in specified medium in an incubator at 37° C. and 5% CO2. The cells were passaged periodically. Cells at the logarithmic growth phase were collected for plating at a density of 2000-4000 cells/well. The next day, the compounds of the present invention were serially diluted and added to the cells, with DMSO being the negative control and the culture media without cells being the blank control. The plate was incubated in the incubator for 72 h. The cell viability assay was performed by adding the detection reagents to the cell culture media according to Cell Titer GLO reagent instructions and detecting luminescent signals on an EnVision microplate reader (PerkinElmer).
(§4) Inhibition of cell growth by the compounds of the present invention was plotted by Prism Graphpad software for statistically calculating the IC50 of the compound of the present invention.

For experiment [5], the system named is A431. The experiment can be described thus: Cell proliferation IC50 assay (Cell Titer GLO), A431 cells. The format is cell-based. The following applies: Homo sapiens, A-431, A431, 72 h, read-out: A431 IC50. In short, it runs like this: as §1
For experiment [6], the system named is BaF3 (EGFR Del19/T790M/C797S). The experiment can be described thus: Cell proliferation IC50 assay (Cell Titer GLO), BaF3 DTC cells. The format is cell-based. The following applies: Mus musculus, Ba/F3 EGFR-Del19/T790M/C797S. How it is done: as §2, §3, §4

For the compound `COc1cc(N2CCC(N3CCN(CCC#Cc4cccc5c4CN(C4CCC(=O)NC4=O)C5=O)CC3)CC2)c(C)cc1Nc1ncc(Br)c(Nc2ccccc2P(C)(C)=O)n1` (stereo not drawn) [Example E7], the IC50 in experiment [1] (Table 6, 10 ng/ml EGF) was 134 nM; in experiment [2] (Table 6, 72 h), 42.7 nM; in experiment [3], 14.9 nM; in experiment [4] (Table 6, 10 ng/ml mIL3, 72 h), 271 nM.
On to `CCc1cc(Nc2ncc(Cl)c(Nc3ccccc3P(C)(C)=O)n2)c(OC)cc1N1CCC(N2CCC3(CCC(=Cc4cccc5c4CN(C4CCC(=O)NC4=O)C5=O)CC3)C2)CC1` (stereo not drawn) [Example E40], for which the IC50 in experiment [1] (Table 6, 10 ng/ml EGF) amounted to 260 nM; in experiment [2] (Table 6, 72 h) it was 17.5 nM; in experiment [3], 4.9 nM; in experiment [5] (Table 6), 1210 nM; in experiment [4] (Table 6, 10 ng/ml mIL3, 72 h) it was 131 nM.
The matching figures for `COc1cc(N2CCC(N3CCN(CCC#Cc4cccc5c4CN(C4CCC(=O)NC4=O)C5=O)CC3)CC2)c(C)cc1Nc1ncc(Br)c(Nc2ccc3c(c2P(C)(C)=O)OCCO3)n1` (stereo not drawn) [Example E43]: 330 nM, 15.8 nM, 6.6 nM, 1060 nM and 122 nM.
As for `COc1cc(N2CCC(N3CCN(CCCc4cccc5c4CN(C4CCC(=O)NC4=O)C5=O)CC3)CC2)ccc1Nc1ncc(Cl)c(Nc2ccccc2P(C)(C)=O)n1` (stereo not drawn) [Example C-4, reference compound], the IC50 stood at 70.7 nM in experiment [2] (Table 5, 72 h); 41.7 nM in experiment [6] (Table 5, 72 h); 142 nM in experiment [4] (Table 5, 10 ng/ml mIL3, 72 h).
As for `COc1cc(N2CCC(N3CCN(CCCCCc4ccc5c(c4)CN(C4CCC(=O)NC4=O)C5=O)CC3)CC2)ccc1Nc1ncc(Cl)c(Nc2ccccc2P(C)(C)=O)n1` (stereo not drawn) [Example C-5, reference compound], the IC50 in experiment [1] (Table 5, 10 ng/ml EGF) was found to be 1630 nM; in experiment [2] (Table 5, 72 h), 103 nM; in experiment [6] (Table 5, 72 h) it was 22.5 nM; in experiment [5] (Table 5), 1230 nM; in experiment [4] (Table 5, 10 ng/ml mIL3, 72 h) it was 570 nM.
On to `CCc1cc(Nc2ncc(Cl)c(Nc3ccccc3P(C)(C)=O)n2)c(OC)cc1N1CCC2(CCN(CCCC#Cc3ccc4c(c3)CN(C3CCC(=O)NC3=O)C4=O)CC2)CC1` (stereo not drawn) [Example E16], for which the IC50 in experiment [1] (Table 5, 10 ng/ml EGF) was above 4000 nM; in experiment [2] (Table 5, 72 h) it was 348 nM; in experiment [6] (Table 5, 72 h), 55.6 nM; in experiment [5] (Table 5), above 4000 nM; in experiment [4] (Table 5, 10 ng/ml mIL3, 72 h), above 4000 nM.
For `COc1cc(N2CCC(N3CCN(CCC#Cc4cccc5c4CN(C4CCC(=O)NC4=O)C5=O)CC3)CC2)c(C)cc1Nc1ncc(Cl)c(Nc2ccccc2P(C)(C)=O)n1` (stereo not drawn) [Example E3], the IC50 in experiment [1] (Table 5, 10 ng/ml EGF) was found to be 287 nM; in experiment [2] (Table 5, 72 h), 46.6 nM; in experiment [6] (Table 5, 72 h), 14.3 nM; in experiment [4] (Table 5, 10 ng/ml mIL3, 72 h), 521 nM.
Turning to `COc1cc(N2CCC(N3CCC4(CCC(Oc5cccc6c5CN(C5CCC(=O)NC5=O)C6=O)CC4)C3)CC2)ccc1Nc1ncc(Cl)c(Nc2ccccc2P(C)(C)=O)n1` (stereo not drawn) [Example C-6, reference compound], the IC50 in experiment [1] (Table 5, 10 ng/ml EGF) stood at 79.2 nM; in experiment [2] (Table 5, 72 h), 33.6 nM; in experiment [6] (Table 5, 72 h), 7.8 nM; in experiment [5] (Table 5), 342 nM; in experiment [4] (Table 5, 10 ng/ml mIL3, 72 h), 93 nM.
As to `CCc1cc(Nc2ncc(Cl)c(Nc3ccccc3P(C)(C)=O)n2)c(OC)cc1N1CCC(N2CCC3(CCC(Cc4cccc5c4CN(C4CCC(=O)NC4=O)C5=O)CC3)C2)CC1` (stereo not drawn) [Example E45], the IC50 turned out to be 585 nM in experiment [1] (Table 6, 10 ng/ml EGF); 21.2 nM in experiment [2] (Table 6, 72 h); 8.5 nM in experiment [3]; 1240 nM in experiment [5] (Table 6); 221 nM in experiment [4] (Table 6, 10 ng/ml mIL3, 72 h).
In the same order, the values of `COc1cc(N2CCC(N3CCN(CCC#Cc4cccc5c4CN(C4CCC(=O)NC4=O)C5=O)CC3)CC2)ncc1Nc1ncc(Cl)c(Nc2ccccc2P(C)(C)=O)n1` (stereo not drawn) [Example E71] are 1550 nM, 62.3 nM, 54.4 nM, above 4000 nM and 719 nM.
As to `CCc1cc(Nc2ncc(Cl)c(Nc3ccccc3P(C)(C)=O)n2)c(OC)cc1N1CCC(N2C[C@@H](C)N(CCCCOc3cccc4c3CN(C3CCC(=O)NC3=O)C4=O)[C@@H](C)C2)CC1` (stereo partly drawn) [Example E129], the IC50 in experiment [1] (Table 6, 10 ng/ml EGF) was 889 nM; in experiment [2] (Table 6, 72 h) it was 47.7 nM; in experiment [3] it was 3.3 nM; in experiment [6] (Table 6, 72 h), 6.13 nM; in experiment [5] (Table 6), 1330 nM.
In the same order, the values of `CCc1cc(Nc2ncc(Cl)c(Nc3ccccc3P(C)(C)=O)n2)cc(OC)c1N1CCC(N2CCN(CCC#Cc3cccc4c3CN(C3CCC(=O)NC3=O)C4=O)CC2)CC1` (stereo not drawn) [Example E93] are 75.4 nM, 68.6 nM, 15 nM, 9.74 nM and 827 nM.
With `CCc1cc(Nc2ncc(Cl)c(Nc3ccccc3P(C)(C)=O)n2)c(OC)cc1N1CCC(N2CCN(C(=O)CNc3cccc4c3C(=O)N(C3CCC(=O)NC3=O)C4=O)CC2)CC1` (stereo not drawn) [Example E112], the IC50 in experiment [1] (Table 6, 10 ng/ml EGF) is above 4000 nM; in experiment [2] (Table 6, 72 h), 85.4 nM; in experiment [3], 10.7 nM; in experiment [6] (Table 6, 72 h) it was 18.4 nM; in experiment [5] (Table 6), 1370 nM.
The matching figures for `CCc1cc(Nc2nc(Nc3ccccc3P(C)(C)=O)c3cc[nH]c3n2)c(OC)cc1N1CCC(N2CCN(CCOc3cccc4c3CN(C3CCC(=O)NC3=O)C4=O)CC2)CC1` (stereo not drawn) [Example E126]: above 4000 nM, 72.3 nM, 44 nM, 18.9 nM and above 4000 nM.
As for `COc1cc(N2CCC(N3CCN(CCOc4cccc5c4CN(C4CCC(=O)NC4=O)C5=O)CC3)CC2)c(C(C)=O)cc1Nc1ncc(Cl)c(Nc2ccccc2P(C)(C)=O)n1` (stereo not drawn) [Example E185], the IC50 was determined as 1650 nM in experiment [1] (Table 6, 10 ng/ml EGF); 144 nM in experiment [2] (Table 6, 72 h); 20.3 nM in experiment [3]; 18.8 nM in experiment [6] (Table 6, 72 h); 1830 nM in experiment [5] (Table 6).
The matching figures for `CCc1cc(Nc2ncc(Cl)c(Nc3ccccc3P(C)(C)=O)n2)c(OC)cc1N1CCC(N2CCN([C@H]3C[C@H](Oc4cccc5c4CN(C4CCC(=O)NC4=O)C5=O)C3)CC2)CC1` (stereo partly drawn) [Example E160]: 1290 nM, 14.3 nM, 0.8 nM, 2.89 nM and 2410 nM.
As for `CCc1cc(Nc2ncc(Br)c(Nc3ccc4c(c3P(C)(C)=O)OCCO4)n2)c(OC)cc1N1CCC(N2CCN(CCC#Cc3cccc4c3CN(C3CCC(=O)NC3=O)C4=O)CC2)CC1` (stereo not drawn) [Example E22], the IC50 in experiment [1] (Table 6, 10 ng/ml EGF) is 275 nM; in experiment [2] (Table 6, 72 h), 34.1 nM; in experiment [3], 4.1 nM; in experiment [5] (Table 6), 1050 nM; in experiment [4] (Table 6, 10 ng/ml mIL3, 72 h), 385 nM.
For `COCc1cc(Nc2ncc(Cl)c(Nc3ccccc3P(C)(C)=O)n2)c(OC)cc1N1CCC(N2CCN(CCCCOc3cccc4c3CN(C3CCC(=O)NC3=O)C4=O)CC2)CC1` (stereo not drawn) [Example E125], the IC50 in experiment [1] (Table 6, 10 ng/ml EGF) was above 4000 nM; in experiment [2] (Table 6, 72 h) it was 104 nM; in experiment [3] it was 18.4 nM; in experiment [6] (Table 6, 72 h), 20.3 nM; in experiment [5] (Table 6) it was above 4000 nM.
In the case of `COc1cc(N2CCC(N3CCC4(CCC(=Cc5cccc6c5CN(C5CCC(=O)NC5=O)C6=O)CC4)C3)CC2)c(C2CC2)cc1Nc1ncc(Cl)c(Nc2ccccc2P(C)(C)=O)n1` (stereo not drawn) [Example E36], the IC50 in experiment [1] (Table 6, 10 ng/ml EGF) came out at 541 nM; in experiment [2] (Table 6, 72 h), 24.7 nM; in experiment [3], 3.1 nM; in experiment [6] (Table 6, 72 h), 9.49 nM; in experiment [5] (Table 6), 1130 nM.
Regarding `COc1cc(N2CCC(N3CCN(CCC#Cc4cccc5c4CN(C4CCC(=O)NC4=O)C5=O)CC3)CC2)c(CC#N)cc1Nc1ncc(Cl)c(Nc2ccccc2P(C)(C)=O)n1` (stereo not drawn) [Example E180], the IC50 in experiment [1] (Table 6, 10 ng/ml EGF) was 888 nM; in experiment [2] (Table 6, 72 h) it was 22.6 nM; in experiment [3], 2.4 nM; in experiment [6] (Table 6, 72 h) it was 5.35 nM; in experiment [5] (Table 6) it was 1100 nM.
